Data taken from publication PMC7738508, “A therapeutic combination of two small molecule toxin inhibitors provides broad preclinical efficacy against viper snakebite” (Nature Communications, 2020).
Values joined by “and” are separate entries in the source; they are usually repeats but may differ in a detail not shown here. Equal values may be shown once.

How the values were obtained:
[1] = test system: procoagulant activity of Echis carinatus venom (citrated bovine plasma); experiment: plasma clotting assay; format: biochemical; parameters: key: max of first derivative of A595 clot curve (max clotting velocity); settings: Echis carinatus venom 100 ng, independent repeats
Procedure: (§1) We used a previously developed plasma clotting assay[35] to measure venom-induced coagulation. Briefly, 100 ng of each venom was incubated at 37 °C for 30 min in the presence or absence of inhibitors (150 µM to 150 nM final concentrations). The final reaction consisted of 10 µl venom ± inhibitors in PBS, 20 µl 20 mM CaCl2, and 20 µl citrated bovine plasma (VWR). The samples were pipetted in triplicate into 384-well plates, and absorbance monitored at 595 nm for 2 h at 25 °C on an Omega FLUOstar instrument. We calculated the maximum clotting velocity of each of the curves as per clot waveform analysis, by calculating the maximum of the first derivative. The means of at least three independent experimental runs for each condition were plotted at each inhibitor concentration with SEMs.

[2] = test system: procoagulant activity of Echis ocellatus venom (citrated bovine plasma); experiment: plasma clotting assay; format: biochemical; settings: Echis ocellatus venom 100 ng, independent repeats
Procedure: as §1

[3] = test system: procoagulant activity of Bothrops asper venom (citrated bovine plasma); experiment: plasma clotting assay; format: biochemical; settings: Bothrops asper venom 100 ng, independent repeats
Procedure: as §1

E. ocellatus venom [4] = settings: cited from earlier work
[5] = test system: coagulopathic activity of Daboia russelii venom (citrated bovine plasma); experiment: plasma clotting assay; format: biochemical; parameters: key to maximum clotting velocity: max of first derivative of A595 clot curve (max clotting velocity); settings: for maximum clotting velocity: Daboia russelii venom 100 ng, independent repeats
Procedure: as §1

[6] = test system: SVMP bioactivity of the four active venoms (E. ocellatus, E. carinatus, B. asper, B. arietans); experiment: in vitro kinetic fluorogenic SVMP assay, viper venoms overall; format: biochemical
Procedure: (§2) The SVMP assay measuring metalloproteinase activity and the plasma assay measuring coagulation in the presence or absence of venoms and inhibitors were performed as previously described. The SVMP assay kinetically measured cleavage of a quenched fluorogenic substrate (ES010, R&D Biosystems) by venom in the presence or absence of inhibitors.
(§3) Briefly, 10 µl of the substrate (supplied as a 6.2 mM stock) was used per 5 ml reaction buffer (150 mM NaCl, 50 mM Tris-Cl pH 7.5). Reactions consisted of 10 µl of venom ± inhibitors in PBS and 90 µl of substrate. Venoms were used at 1 µg/reaction and final inhibitor concentrations ranged from 150 µM to 150 nM. Samples were preincubated for 30 min at 37 °C and pipetted in triplicate into 384-well plates (Greiner). Thereafter, data was collected on an Omega FLUOstar (BMG Labtech) instrument at an excitation wavelength of 320 nm and emission wavelength of 405 nm at 25 °C for 1 h. The areas under the curve (AUCs) in the 0–40 min interval were calculated for each sample using MARS data analysis software v3.31 (BMG Labtech); this time point was chosen as the time where all fluorescence curves had reached a plateau (maximum fluorescence). For comparing venom-only samples, the means of at least three independent experimental runs for each condition, expressed as AUCs (n ≥ 3), were plotted at each inhibitor concentration with standard error of the mean (SEM). To determine inhibitor efficacy, the AUCs for each of the samples that consisted of venom + inhibitors were transformed and expressed as percentages of the venom-only sample (where the venom was 100%). The negative control (PBS-only) was also expressed relative to the venom, and the variation in background was presented as an interval delineated by the lowest and highest values in the PBS-only samples across concentrations and inhibitors for a specific venom.

[7] = test system: Echis carinatus venom SVMP activity; experiment: fluorogenic SVMP assay; format: biochemical; settings: independent repeats
Procedure: as §2, §3

[8] = test system: Echis ocellatus venom SVMP activity; experiment: fluorogenic SVMP assay; format: biochemical; settings: independent repeats
Procedure: as §2, §3

[9] = test system: Bothrops asper venom SVMP activity; experiment: fluorogenic SVMP assay; format: biochemical; settings: independent repeats
Procedure: as §2, §3

[10] = test system: Bitis arietans venom SVMP activity; experiment: fluorogenic SVMP assay; format: biochemical; settings: independent repeats
Procedure: as §2, §3

[11] = test system: procoagulant activity of viper venoms (citrated bovine plasma); experiment: plasma clotting assay, viper venoms overall; format: biochemical
Procedure: as §1

[12] = cited from earlier work
[13] = test system: Bitis arietans venom SVSP activity; experiment: chromogenic SVSP assay; format: biochemical; settings: independent repeats
Procedure: (§4) SVSP activity was measured using a chromogenic substrate (S-2288, Cambridge Bioscience). Reactions consisted of 15 µl of venom ± inhibitors in PBS, 15 µl of assay buffer (100 mM Tris-Cl pH 8.5, 100 mM NaCl) and 15 µl of 6 mM substrate. A positive venom-only control, a negative control containing 15 µl of PBS and a drug-only control (where applicable) were also included. The final substrate concentration was 2 mM and venoms were used at 1 µg/reaction. When testing inhibitors, these were preincubated with the venoms for 30 min at 37 °C with concentrations ranging from 150 µM to 150 nM (tenfold dilutions). The samples were pipetted in triplicate into 384-well plates (Greiner) and absorbance at 405 nm was monitored kinetically for ~30 min on an Omega FLUOstar instrument (BMG Labtech). Given the linearity of the resulting slopes, negative control readings (PBS) were subtracted from each reading and the rate of substrate consumption calculated by measuring the slope between 0 and 5 min. The mean rates (expressed as ΔAbs/time/µg venom) of at least three independent experimental runs for each condition (n ≥ 3) were plotted at each inhibitor concentration with SEMs using Prism v8 software (GraphPad).

[14] = test system: Echis ocellatus venom SVSP activity; experiment: chromogenic SVSP assay; format: biochemical; settings: nafamostat 150 nM, independent repeats
Procedure: as §4

[15] = test system: Echis carinatus venom SVSP activity; experiment: chromogenic SVSP assay; format: biochemical; settings: independent repeats
Procedure: as §4

[16] = test system: Bothrops asper venom SVSP activity; experiment: chromogenic SVSP assay; format: biochemical; settings: independent repeats
Procedure: as §4

E. ocellatus venom [17] = experiment: in vivo preincubation model of envenoming (i.v.); parameters: species or system CD-1 mice
Procedure: All animal experiments were conducted using protocols approved by the Animal Welfare and Ethical Review Boards of the Liverpool School of Tropical Medicine and the University of Liverpool, and performed in specific pathogen-free conditions under licensed approval (PPL #4003718 and #P5846F90) of the UK Home Office and in accordance with the Animal [Scientific Procedures] Act 1986 and institutional guidance on animal care. All experimental animals (18–20 g [4–5 weeks old], male, CD-1 mice, Charles River, UK) were housed in groups of five with environmental enrichment, water and food ad libitum and their health monitored daily during acclimatization. The experimental design was based upon 3R-refined WHO-recommended protocols[28],[41], with animals randomized and observers being blinded to the experimental condition. The median lethal doses (venom LD50) used for E. ocellatus (Nigeria), E. carinatus (India), B. asper (Costa Rica), D. russelii (Sri Lanka) and B. arietans (Nigeria) venoms were previously determined[25],[41],[44],[45].
All experimental doses were prepared to a volume of 200 µl in PBS and incubated at 37 °C for 30 min prior to their intravenous injection via the tail vein. Animals were monitored for 6 h, and euthanized via rising concentrations of CO2 upon observation of previously defined humane end points that are predicators of lethality (e.g., seizure, pulmonary distress, paralysis, hemorrhage)[28]. Deaths, time of death, and survivors were recorded; where death/time of death actually represents the implementation of euthanasia based on defined humane end points.
For all experimental animals described above, blood samples were collected via cardiac puncture immediately post-euthanasia. Plasma was separated by centrifugation at 400 × g for 10 min and stored at −80 °C. We assessed the levels of thrombin-antithrombin complexes (TAT) and soluble thrombomodulin using mouse ELISA Kits (ab137994 and ab209880, Abcam), following the manufacturer’s protocol. All available plasma samples (some were unobtainable via cardiac puncture due to extensive internal hemorrhage) were assessed if the time of death within the group varied, whereas three samples were randomly chosen if the time of death was the same (e.g., either very rapid death within 2 min, or survival until the end of the experiment [360 min or 24 h]). The resulting data was plotted as the median of duplicate measurements for each animal and is presented with standard deviations (SDs).

[18] = test system: SVSP activity of viper venoms; experiment: chromogenic SVSP assay, viper venoms overall; format: biochemical
Procedure: as §4

plasma coagulation = format: biochemical, bovine; settings: no venom; high doses (150 µM)
Procedure: as §1

For `O=S(=O)(O)CC(S)CS` (stereo not drawn) [DMPS, 2,3-dimercapto-1-propanesulfonic acid], the maximum clotting velocity ([1]; inhibitor 15 µM) was 0.04133 and 0.038 and 0.05133, the maximum clotting velocity ([1]; inhibitor 150 µM) was 0.033 and 0.04 and 0.03533 and the maximum clotting velocity ([2]; inhibitor 15 µM) was 0.09233 and 0.098 and 0.085. The maximum clotting velocity ([2]; inhibitor 150 µM) was 0.03733 and 0.04867 and 0.039, the maximum clotting velocity ([3]; inhibitor 15 µM) was 0.04261 and 0.04406 and 0.05475 and the maximum clotting velocity ([3]; inhibitor 150 µM) was 0.03159 and 0.02725 and 0.0282. For the same molecule, the “survival time of individual animals (Kaplan-Meier source data)” value (E. ocellatus venom [4]; 90 µg E. ocellatus venom i.p., 120 µg DMPS i.p. 15 mins later, D + AV also 168 µl EchiTAbG i.v. 1 hr after venom, 1 = death (=), 0 = survived (>=), ref Albulescu et al.1) was 12.6 h and 21.51 h and 15.51 h and ≥ 24 h, the “duration for which lethality was prevented” value (E. ocellatus venom [4]; same preclinical model, E. ocellatus) was ~ 8 h and the “neutralizing the procoagulant activity” value ([5]; D. russelii venom) was “ineffective”. The maximum clotting velocity ([5]; inhibitor 15 µM) was 0.1186 and 0.1081 and 0.1102, the maximum clotting velocity ([5]; inhibitor 150 µM) was 0.07853 and 0.08841 and 0.07869 and the “lowest concentration generally effective / required to fully inhibit SVMP activities” value ([6]; across the active venoms) was 15 µM. The IC50 ([6]; range across the active venoms, read-out: IC50s, inhibition of venom SVMP activity) was 290 to 4190 nM, the “SVMP activity, percentage of the venom-only sample” value (“SVMP activity, percentage” for short) ([7]; inhibitor 15 µM) was 24.5956% and 26.5777% and 20.6819% and the “SVMP activity, percentage” value ([7]; inhibitor 150 µM) was 13.0224% and 14.752% and 12.5581%. The “SVMP activity, percentage” value ([8]; inhibitor 15 µM) was 18.6328% and 21.5132% and 17.5016%, the “SVMP activity, percentage” value ([8]; inhibitor 150 µM) was 15.3569% and 14.8369% and 16.006% and the “SVMP activity, percentage” value ([9]; inhibitor 15 µM) was 34.6541% and 41.4523% and 39.2938%. The “SVMP activity, percentage” value ([9]; inhibitor 150 µM) was 33.142% and 30.6392% and 28.5849%, the “SVMP activity, percentage” value ([10]; inhibitor 15 µM) was 22.3961% and 20.1207% and 18.6801% and the “SVMP activity, percentage” value ([10]; inhibitor 150 µM) was 20.1452% and 19.0476% and 17.6656%. For the same molecule, the “neutralizing the procoagulant activities” value ([11]; E. ocellatus, E. carinatus and B. asper venoms, highest dose 150 µM) was “effective” and the IC50 ([11]; range across all venoms, lower end of dimercaprol and marimastat ranges given as < 0.15, read-out: IC50, inhibition of procoagulant venom activity) was 800 to 25900 nM.

For `N=C(N)c1ccc2cc(OC(=O)c3ccc(N=C(N)N)cc3)ccc2c1` [nafamostat], the half-life [12] is given as ~ 8 min, the “SVSP activity, rate of substrate consumption” value (from here on “SVSP activity, rate”) ([13]; nafamostat 150 nM) is given as 0.0636 ΔAbs/time/µg venom and 0.06929 ΔAbs/time/µg venom and 0.08741 ΔAbs/time/µg venom and the “SVSP activity, rate” value ([13]; nafamostat 15 uM) is given as 0.0014 ΔAbs/time/µg venom and 0.001071 ΔAbs/time/µg venom and 0.001786 ΔAbs/time/µg venom. The “SVSP activity, rate” value [14] was 0.01667 ΔAbs/time/µg venom and 0.02387 ΔAbs/time/µg venom and 0.02696 ΔAbs/time/µg venom, the “SVSP activity, rate” value ([15]; nafamostat 150 nM) was 0.08494 ΔAbs/time/µg venom and 0.09756 ΔAbs/time/µg venom and 0.1079 ΔAbs/time/µg venom and the “SVSP activity, rate” value ([15]; nafamostat 15 uM) was 0.001726 ΔAbs/time/µg venom and 0.002857 ΔAbs/time/µg venom and 0.003095 ΔAbs/time/µg venom. For the same molecule, the “SVSP activity, rate” value ([16]; nafamostat 150 nM) was 0.03413 ΔAbs/time/µg venom and 0.03851 ΔAbs/time/µg venom and 0.04036 ΔAbs/time/µg venom, the “SVSP activity, rate” value ([16]; nafamostat 15 uM) was 0.003733 ΔAbs/time/µg venom and 0.002738 ΔAbs/time/µg venom and 0.004018 ΔAbs/time/µg venom and the “protection against venom-induced lethality” value (E. ocellatus venom [17]; 45 µg E. ocellatus venom preincubated with 60 µg of each drug, i.v., 6 h) was “no evident efficacy”. For the same molecule, the “thrombin-antithrombin (TAT) levels, range in group” value (E. ocellatus venom [17]; plasma after euthanasia, E. ocellatus venom + 60 µg of each drug, venom-only mean 1127.3, normal mice 10.2–15.9) was 543.9 to 859.1 ng/mL, the “inhibition of SVSP activity” value ([18]; highest doses 150 and 15 µM, irrespective of venom) was “completely inhibiting SVSP activity” and the IC50 ([18]; range across venoms, read-out: IC50s, inhibition of venom SVSP activity) was 120 to 1070 nM. For the same molecule, the “effect on normal plasma clotting” value (plasma coagulation) was “dramatically inhibits plasma coagulation”.
